Experimental data published in ChEMBL document CHEMBL1201862, “PubChem BioAssay data set” (2004).
Active and inactive are the calls of the source. No stated cut-off is given here; in the data, actives have a measured IC50 and inactives only a lower limit.

Molecular target: Envelope glycoprotein gp160 (Human immunodeficiency virus 1, UniProt Q6QLK5)
Test: inhibitors of HIV fusion peptide binding, primary screen, biochemical, uHTS, fluorescence dequenching (AID 1986)

Sequence of Envelope glycoprotein gp160 (Q6QLK5 whole entry, the tested form may be a part): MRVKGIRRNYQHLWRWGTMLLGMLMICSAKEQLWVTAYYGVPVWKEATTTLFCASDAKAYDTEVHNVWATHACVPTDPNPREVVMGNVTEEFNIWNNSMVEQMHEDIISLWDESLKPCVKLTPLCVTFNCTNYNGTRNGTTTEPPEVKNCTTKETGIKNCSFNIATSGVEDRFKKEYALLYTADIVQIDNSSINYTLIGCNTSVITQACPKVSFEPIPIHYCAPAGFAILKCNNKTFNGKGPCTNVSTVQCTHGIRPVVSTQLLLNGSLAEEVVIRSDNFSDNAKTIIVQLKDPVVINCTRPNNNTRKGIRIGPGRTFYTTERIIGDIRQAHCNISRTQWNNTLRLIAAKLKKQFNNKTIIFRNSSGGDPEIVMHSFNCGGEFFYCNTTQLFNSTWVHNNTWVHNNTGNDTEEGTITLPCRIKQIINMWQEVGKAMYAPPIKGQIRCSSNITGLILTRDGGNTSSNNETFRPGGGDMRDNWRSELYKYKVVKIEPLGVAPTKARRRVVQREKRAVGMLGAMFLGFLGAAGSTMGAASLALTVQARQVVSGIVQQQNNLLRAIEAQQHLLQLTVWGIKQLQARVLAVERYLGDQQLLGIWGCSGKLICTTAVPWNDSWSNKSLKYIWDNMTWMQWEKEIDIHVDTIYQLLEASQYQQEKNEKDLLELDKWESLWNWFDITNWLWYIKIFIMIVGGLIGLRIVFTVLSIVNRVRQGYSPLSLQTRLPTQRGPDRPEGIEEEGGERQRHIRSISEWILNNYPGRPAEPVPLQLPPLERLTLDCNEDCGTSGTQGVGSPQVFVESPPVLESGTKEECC

O=C(N/N=C/c1cc(Br)c(O)c(Br)c1)c1cc2c(ccc3ccccc32)o1
IC50: 15 µM (active)

COc1ccc(C(=O)Oc2ccc(/C=N/Nc3ccc(Cl)c(C(=O)O)c3)cc2OC)cc1
IC50: 19.3 µM (active)

CC(/C=C1\SC(=S)N(C(C(=O)O)c2ccccc2)C1=O)=C\c1ccccc1 (centres undefined)
IC50: 46 µM (active)

COc1cc(C(=O)Nc2scc(-c3ccc(Br)cc3)c2C(=O)O)cc(OC)c1OC
IC50: 33.2 µM (active)
